Reference: article PMC11678873, “Ketoconazole-Fumaric Acid Pharmaceutical Cocrystal: From Formulation Design for Bioavailability Improvement to Biocompatibility Testing and Antifungal Efficacy Evaluation” (International Journal of Molecular Sciences, 2024)

Legend:
[1] = test system: BALBc mice; experiment: Histopathology of ear sections (MEST); assay type: in vivo
Description: (§1) On day one, under anesthesia, all mice received 30 µL/mouse of Freund’s complete adjuvant (Thermo Scientific™, Waltham, MA, USA), subcutaneously, in the right flank and the abdominal fur was carefully shaved, without skin abrasion. Then animals were treated with 100 µL of locally applied solution (abdominal skin) of each tested substance, in a concentration of 200 µg mL^−1 solved in ethanol 70%, daily for the first 6 days. The left ear thickness of each mouse was measured with an electronic caliper (initial value). Each mouse was treated with 50 µL/ear of the same solution on the left ear pinnae on day 7—challenge and on day 14—rechallenge. Ear thickness was measured at 24 h and 48 h after challenge and rechallenge, respectively. Then mice were humanely sacrificed, under anesthesia, and ears were collected for inflammatory markers (IL1α, IL1β and IL6) assessment and histopathology.
(§2) For histopathological examination, the collected samples (liver and ears) were fixed in 10% buffered neutral formalin, embedded in paraffin, cut at 4 micrometer thickness, and stained using the Hematoxylin–Eosin (H&E) method. The slides were examined under a BX51 Olympus microscope, and images were taken with an Olympus UC 30 digital camera (Olympus, Hamburg, Germany) and processed using the Olympus Stream Basic program.

[2] = test system: BALBc mice; experiment: Inflammatory cytokines in treated ear tissue, ELISA (MEST); assay type: in vivo
Description: (§3) For the oxidative stress assessment, the level of malondialdehyde, a marker of lipid peroxidation, was measured from lysates of liver samples (in vivo) and cells-BJ and HepG2 (in vitro), using the Malondialdehyde Colorimetric Assay Kit (TBA Method) provided by ElabScience. Tissue sample homogenates (liver and ear) were prepared as previously described by David et al.. […] Inflammatory reaction was assessed by measurement of the tumor necrosis factor α (TNFα) in liver samples, using the rat TNFα ELISA kit from EIAAB. IL1α and β and IL6 measurement from the mice ear lysates were completed by ELISA, using the respective kits from Quantikine ELISA Immunoassay kit. Tissue homogenate samples were treated according to manufacturer’s instructions; readings were performed at 450 nm with correction wavelength set at 540 nm, using an ELISA plate reader (Tecan, Grödig, Austria).
as §1

[3] = test system: BJ dermal fibroblasts; experiment: Oxidative damage, malondialdehyde (MDA) in cell lysates, BJ; assay type: cell-based, human; details: 6 µM, 24 h, vs untreated controls
Description: as §3, with “Oxidative stress-induced damage was assessed in vitro by malondialdehyde (MDA) measurement from cell lysates. […] Cell lysates were then prepared as described. The concentration of 6 μM was chosen to mimic the clinical scenario [47]. […] For” for “For”, “manufacturer's” for “manufacturer’s”

[4] = test system: Candida albicans; design: method as in PMID 1799950; details: ICR mice, systemic Candida albicans infections, intraperitoneal; cited from earlier work
[5] = test system: HepG2 hepatocarcinoma cells; experiment: Cell viability, MTS assay, HepG2 hepatocarcinoma cells; assay type: cell-based, human; details: for cell viability (effect in words): HepG2, 24 h, Figure 4; for IC50: Homo sapiens, HepG2 hepatocarcinoma cells, 24 h exposure, range 0.01–100 µM, MTS
Description: (§4) Dermal fibroblasts (BJ-ATCC CRL-2522™) and hepatocarcinoma cells (HepG2-HB-8065, ATCC, Gaithersburg, MD, USA) were employed. Cell culture medium used was Dulbecco modified Eagle medium (DMEM) supplemented with 5% FCS-fetal calf serum, 50 µg mL^−1 gentamycin, and 5 ng mL^−1 amphotericin, all from Biochrom AG (Berlin, Germany). Medium was changed twice a week. For all experiments, a medium with 2% FCS was used. […] The final concentration of DMSO in the solutions added to the cells was lower than 0.05%, without negative viability effects. Viability was measured using the MTS assay CellTiter 96® AQueous Non-Radioactive Cell Proliferation Assay from (Promega Corporation, Madison, WI, USA), as indicated by the producer. […] Negative controls were treated with medium. Viability was measured through colorimetry, using an ELISA plate reader (Tecan, Männedorf, Switzerland) at 540 nm. All experiments were performed in triplicate. […] Inhibitory concentration (IC50) was calculated. The statistical difference between experimental groups was evaluated by nonparametric Kruskal–Wallis test, followed by Dunns post-test; the statistical significance of the treatments and time exposure within the experimental groups was tested using two-way ANOVA, followed by Bonferroni post-tests; results were considered significant for p < 0.05. […] Statistical package used for data analysis was Prism version 4.00 for Windows, GraphPad Software, San Diego, CA, USA, www.graphpad.com. For IC50 calculation of the cell viability in vitro, the AAT Bioquest was used.

[6] = test system: HepG2 hepatocarcinoma cells; experiment: Oxidative damage, malondialdehyde (MDA) in cell lysates, HepG2; assay type: cell-based, human; details: HepG2, 6 µM, 24 h, vs untreated controls
Description: as §3, with “Oxidative stress-induced damage was assessed in vitro by malondialdehyde (MDA) measurement from cell lysates. […] Cell lysates were then prepared as described. The concentration of 6 μM was chosen to mimic the clinical scenario [47]. […] For” for “For”, “manufacturer's” for “manufacturer’s”

[7] = test system: BJ dermal fibroblasts; experiment: Cell viability, MTS assay, BJ dermal fibroblasts; assay type: cell-based, human; details: for cell viability (effect in words): BJ, 24 h, Figure 4; for IC50: Homo sapiens, Fibroblast, BJ dermal fibroblasts, 24 h exposure, range 0.01–100 µM, MTS
Description: as §4

[8] = test system: humans; details: 75 subjects, 500 mg daily for one year; cited from earlier work
[9] = in vivo; details: female, Wistar, rat, po, 20 mg/kg
Description: (§5) Regarding HPLC-MS Quantification, serum samples were processed according to the modified protocol described by Wang et al. [99]. According to this protocol, 0.5 mL of serum was extracted into 3 mL of ethyl acetate by shaking for 3 min, after which the mixture was centrifuged for 8 min at 4000 rpm. The organic layer, after being transferred to a clean tube, was evaporated at 37 °C under a stream of nitrogen. The residue was resuspended in 100 μL acetonitrile and then analyzed using a LC2010 Shimadzu (Shimadzu, Kyoto, Japan) high-performance liquid chromatograph, equipped with diode array (DAD) and quadrupole mass spectrometer (MS) detectors.
(§6) Chromatographic separation was performed on a Grace Alltima C18 column (100 × 3 mm, 3 μm), at a temperature of 40 °C, using acetonitrile-water mixture 1:1 (V/V) with 0.1% formic acid as the mobile phase. The elution was carried out isocratically with 0.4 mL min^−1 flow rate. The injected sample volume was 10 μL. The mass spectrometer parameters were the capillary voltage of 1.5 kV, desolvation temperature of 250 °C, and interface temperature of 200 °C.

[10] = Wistar rats, one oral dose 20 mg kg^−1 bw
Description: as §5, §6

[11] = design: method as in PMID 3767339; details: healthy humans, therapeutic oral dose of 200 mg KTZ; cited from earlier work
[12] = test system: BALBc mice; details: mouse, in vivo
[13] = test system: Wistar rats; experiment: Liver histopathology (HE stain); assay type: in vivo; details: oral 20 mg kg^−1 bw, 30 min, 24 h, 7 days
Description: Adult female Wistar rats, 3 months old (200 g body weight), were kept in standard cages type II, 5 animals/cage, in constant conditions of humidity (65%), temperature (21 °C), and day/night cycles of 12 h, fed with standard food (Cantacuzino Institute, Bucharest, Romania) and water ad libitum. […] […] Blood and liver samples were collected.
For the histopathological examination, the liver samples collected from the left lateral lobe and right medial lobe were fixed in 10% buffered neutral formalin, embedded in paraffin, cut at 4 µm thickness, and stained using the Hematoxylin–Eosin (H&E) staining method. The slides were examined under a BX51 Olympus microscope, and images were taken with an Olympus UC 30 digital camera (Olympus, Hamburg, Germany) and processed using the Olympus Stream Basic program.
as §2

[14] = BALBc mice, after MEST, HE stain
[15] = BALBc mice, ear collected at R48 h, ELISA, vs control

| SMILES | histology of ear pinna [1, 14] | IL1α in treated ear tissue [2, 15] | IL1β in treated ear tissue [2, 15] | IL6 in treated ear tissue [2, 15] | malondialdehyde (MDA), marker for lipid peroxidation [3] | cell viability (effect in words) [5] | IC50 [5] | malondialdehyde (MDA), marker for lipid peroxidation [6] | cell viability (effect in words) [7] | IC50 [7] | also measured |
| --- | --- | --- | --- | --- | --- | --- | --- | --- | --- | --- | --- |
| O=[N+]([O-])c1ccc(Cl)c([N+](=O)[O-])c1 [DNCB, dinitrochlorobenzene] | contact dermatitis | significant increase | significant increase | significant increase |  |  |  |  |  |  |  |
| O=C(O)/C=C/C(=O)O [FUM, trans-2-butenedioic acid] |  |  |  |  | smaller effect | minimal effect | 3.19 µM | slightly increased | minimal effect | 7.26 µM | survival of infected mice [4]: prolonged survival and prevented one-fifth of deaths; histology of ear pinna ([1]; mouse, in vivo): No histological changes; adverse effects in humans [8]: no evidence of adverse effects; IL1α in treated ear tissue ([2]; mouse, in vivo): decreased; IL1β in treated ear tissue ([2]; mouse, in vivo): decreased; IL6 in treated ear tissue ([2]; mouse, in vivo): increased |
| CC(=O)N1CCN(c2ccc(OCC3COC(Cn4ccnc4)(c4ccc(Cl)cc4Cl)O3)cc2)CC1 (stereo not drawn) [KTZ, cis-1-acetyl-4-[4-[[(2RS,4SR)-2-(2,4-dichlorophenyl)-2-(1H-imidazol-1-ylmethyl)-1,3-dioxolan-4-yl]methoxy]phenyl]piperazine] | No histological changes | decreased | decreased | increased | decreased | decreased | 7.48 µM | decreased | decreased | 7.45 µM | AUC(0-t) [9]: 3820 ng·h/mL; Cmax ([9]; Cmax, Wistar rats, one oral dose 20 mg kg^−1 bw, serum): 5820 ± 700 ng/mL; detection in plasma over time [10]: not detected after 6 h; plasma concentration [11]: 5.85 µM; epicutaneous sensitization, ear thickness [12]: did not induce any allergic reactions; liver histopathology [13]: normal hepatic architecture |
